The record followed here is US12187717B2, “Compound and use thereof in treating autoimmune diseases” (PARENCHYMA BIOTECH INC., priority 2022, dated 2025).

SMILES strings stand for the structures.

For one series, the system named is IL-6. As to the kind of experiment: IL-6 production of A549 epithelial cells by IL-1β stimulation. Particulars: A549, 5 μM, 48 hours then IL-1β 24 hours, vs control. It is filed as cell-based, Human. Here is the method:
In order to assess the inhibitory effects of production of IL-6 by the compounds of the present invention prepared as above, an IL-6 production test of epithelial cells by stimulation of IL-1β was performed.
After recovering A549 cells under culture in DMEM-fetal bovine serum (FBS) 10% medium and confirming that the survival rate is 97% or more through trypan blue staining, the recovered product was centrifuged at a speed of 1200 rpm for 5 minutes at room temperature, and the cells were prepared by resuspending them in DMEM-10% fetal bovine serum medium at 1×10^6 cells/3 ml. Thereafter, the cells were dispensed by 3 ml onto a 60 mm plate, and each dish was treated with 50 μl of Compounds 6, 9, 21, 32 and 39 at a concentration of 5 μM diluted in DMEM medium, and then cultured in a cell incubator (5% CO2 incubator) for 48 hours. Then, the cells were treated with 50 μl of human recombinant IL-1β at a concentration of 12.5 ng/ml diluted in DMEM medium, followed by culturing the same in a cell incubator (5% CO2 incubator) for 24 hours. As a control, 50 μl of 0.05% dimethylsulfoxide (DMSO)/DMEM medium was used for treatment.
(§1) The cultured cells were recovered to prepare an mRNA sample. […] From the separated RNA, cDNA was synthesized by reverse transcription, and the expression of CYP1A1 was confirmed through a real-time polymerase chain reaction (PCR) using iQ SYBR-Green Supermix (Bio-rad) in a CFX96 (Bio-rad) detection system. […] Herein, one (1) fold was set using the control.
(§2) The real-time polymerase chain reaction was performed under the conditions of 45 cycles at an annealing temperature of 58° C., wherein the following primer sequences were used.

Another series concerns the target CYP2D6 (Homo sapiens, UniProt P10635). The following applies: 2 days, 10 μM.
The subject of a further series is CYP1A1. Kind of series: Induction of CYP1A1 mRNA expression in HepG2 (real-time PCR). It is filed as cell-based, Human. The following applies: HepG2, 1 μM, 24 hours, vs control (vehicle). As for the experimental part:
In order to confirm target specificity of the compounds of an embodiment of the present invention prepared as above, it was confirmed whether the expression levels of CYP1A1 mRNA and CYP1A1 protein, which are AHR target genes, were increased.
After recovering HepG2 under culture in DMEM-fetal bovine serum (FBS) 10% medium and then confirming that the survival rate is 97% or more through trypan blue staining, the recovered product was centrifuged at a speed of 1200 rpm for 5 minutes at room temperature, and the cells were prepared by resuspending them in DMEM-fetal calf serum 10% medium at 3×10^5 cells/ml. Thereafter, the cells were dispensed onto a 60 mm dish by 3 ml, and each dish was treated with 50 μl of Compounds 6, 21, 32 and 39 at a concentration of 1 μM diluted in DMEM medium, and then cultured in a cell incubator (5% CO2 incubator) for 24 hours. As a control, 50 μl of 0.05% dimethylsulfoxide (DMSO)/DMEM medium was used for treatment.
as §1, §2

Series [1] relates to DSS-induced inflammatory bowel disease. As to the kind of experiment: DSS-induced inflammatory bowel disease model: severity index and colon weight:length ratio. It counts as in vivo, C57BL/6 mice. Particulars: 10 mg/kg oral daily, compared to solvent control. As for the experimental part: On day 0 of the experiment, a 2.0% DSS solution prepared by dissolving DSS (Dextran sulfate sodium, MP biomedicals, Cat No. 160110) in […] was given for drinking to C57BL/6 mice (11 weeks old, female, 20±2 g) for 7 days. The 2.0% DSS solution was changed at an interval of 2 days. Sterile distilled water was provided for drinking from the 8th day of the experiment. Body weight and severity index were measured at an interval of 2 days from the 0th day of the experiment in order to confirm the onset of inflammatory bowel disease.
10 mg/kg of Compound 6 per mouse was completely dissolved in an ethanol-Cremophor EL mixture corresponding to 7.5% (v/v) of the administered dose, and then, was diluted in phosphate buffered saline to prepare the final ethanol:Cremophor EL:phosphate buffered saline (0.375:0.375:9.25, v/v/v), followed by oral administration of 200 μl daily for a total of 14 times from the 1st to 14th days of the experiment. An inflammatory bowel disease severity index was visually observed and recorded at an interval of 2 days according to a severity index system classified into 0 to 10 levels.
Inflammatory bowel disease symptoms were evaluated by summing the scores of three items according to the following items (Table 2).

Series [2] concerns intestinal epithelial barrier integrity. Kind of series: Mucosal healing with FITC-dextran in DSS-induced inflammatory bowel disease model. It is filed as in vivo, C57BL/6 mice. Particulars: 10 mg/kg oral daily, 15th day, 4 hours after FITC-dextran, compared to solvent control. Here is the method:
In order to investigate mucosal healing effects of the compounds according to an embodiment of the present invention, inflammatory bowel disease was induced in C57BL/6 mice, and a degree of recovery of intestinal epithelial harrier integrity was assessed by administering Compound 6 as follows. On day 0 of the experiment, a 2.0% DSS solution prepared by dissolving 2.0% DSS in sterile distilled water was given for drinking to C57BL/6 mice (11 weeks old, female, 20±2 g) for 7 days. The 2.0% DSS solution was changed at an interval of 2 days. Sterile distilled water was provided for drinking from the 8th day of the experiment. Body weight and severity index were measured at an interval of 2 days from the 0th day of the experiment, so as to confirm the onset of inflammatory bowel disease. […] 4 hours after oral administration, fluorescence was measured in the serum extracted from the heart (fluorometer, excitation 485490 nm, emission […]).

CYP2D6, sequence (P10635 whole entry): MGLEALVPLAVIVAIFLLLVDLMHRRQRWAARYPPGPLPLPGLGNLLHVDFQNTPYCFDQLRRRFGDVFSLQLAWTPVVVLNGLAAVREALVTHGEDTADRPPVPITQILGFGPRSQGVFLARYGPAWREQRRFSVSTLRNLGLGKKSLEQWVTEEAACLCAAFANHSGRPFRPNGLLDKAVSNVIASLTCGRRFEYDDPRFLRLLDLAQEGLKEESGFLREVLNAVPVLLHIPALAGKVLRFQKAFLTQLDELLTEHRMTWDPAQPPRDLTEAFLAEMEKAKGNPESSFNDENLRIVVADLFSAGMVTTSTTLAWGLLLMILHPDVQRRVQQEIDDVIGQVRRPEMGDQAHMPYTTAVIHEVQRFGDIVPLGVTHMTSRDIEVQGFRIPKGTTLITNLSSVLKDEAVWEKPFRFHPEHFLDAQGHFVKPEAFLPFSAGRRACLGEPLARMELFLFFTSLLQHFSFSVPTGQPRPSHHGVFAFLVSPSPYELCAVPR

For the compound `O=C(Cc1c[nH]c2ccc(Cl)cc12)Nc1nc2ccc(N3CCOCC3)cc2s1` [Compound 6, 2-(5-chloro-1H-indol-3-yl)-N-(6-morpholinobenzo[d]thiazol-2-yl)acetamide], the “IL-6 production of A549 by IL-1β stimulation” value with IL-6 is recorded as “significantly reduced”. For the same compound, at CYP2D6, the CYP2D6 activity is reported as 101.2 % of Control Activity. Besides, the “CYP1A1 mRNA expression level” value in the series with CYP1A1 was “significantly induced”. Moreover, the “inflammatory bowel disease severity index” value in series [1] (10th day) is listed as “statistically significant therapeutic effects”. The “colon weight:length ratio” value in series [1] (15th day) is reported as “significantly suppressed”. Moreover, the “Serum FITC-dextran” value in series [2] was “significantly decreased”.
